Experimental data published in ChEMBL document CHEMBL3232928, “Fragment-to-hit-to-lead discovery of a novel pyridylurea scaffold of ATP competitive dual targeting type II topoisomerase inhibiting antibacterial agents” (J Med Chem, 2013).
In brackets after ≈: the same amount, converted by molar mass.

System: not listed separately
Test: Unbound fraction in human at 10 uM after 16 hrs by LC-MS/MS analysis
Format: ADME
Settings: plasma
Work on `CCNC(=O)Nc1cc(-c2nc(C(F)(F)F)cs2)c(-c2cncc(-c3c(C)noc3C)c2)cn1` yielded a fraction unbound at 16 h, 10 µM of 0.045.

System: not listed separately
Test: Solubility of the compound
Format: physicochemical
Settings: not given
Compound `CCNC(=O)Nc1ccc(-c2nc3cccc(C(N)=O)c3s2)cn1` has a solubility of less than 1 µM. Work on `CCNC(=O)Nc1cc(-c2nc(C(F)(F)F)cs2)c(-c2cncc(-c3c(C)noc3C)c2)cn1` yielded a solubility of 6 µM (≈ 2.93 µg/mL).

System: Escherichia coli
Test: Antibacterial activity against tolC efflux pump deficient Escherichia coli W3110 assessed as growth inhibition after 18 to 24 hrs by CLSI broth microdilution method
Format: functional
Settings: not given
`CCNC(=O)Nc1ccc(-c2nc3cccc(C(=O)O)c3s2)cn1` gave an MIC of 8 µg/mL (≈ 23.4 µM). For `CCNC(=O)Nc1ccc(-c2cccc(C(=O)O)c2)cn1`, the MIC was greater than 64 µg/mL. Compound `CCNC(=O)Nc1ccc(-c2nc3cccc(C(N)=O)c3s2)cn1` has an MIC greater than 64 µg/mL. Work on `CCNC(=O)Nc1cc(-c2nc(C(F)(F)F)cs2)c(-c2cncc(-c3c(C)noc3C)c2)cn1` yielded an MIC greater than 9 µg/mL.

System: not listed separately
Test: Inhibition of ATPase activity in Escherichia coli ParE by ammonium molybdate/malachite green-based absorbance assay
Settings: not given
`CCNC(=O)Nc1ccc(-c2cccc(C(=O)O)c2)cn1` gave an IC50 of 2000 nM. Work on `CCNC(=O)Nc1ccc(-c2nc3cccc(C(N)=O)c3s2)cn1` yielded an IC50 of 71 nM. `CCNC(=O)Nc1cc(-c2nc(C(F)(F)F)cs2)c(-c2cncc(-c3c(C)noc3C)c2)cn1` gave an IC50 of 53 nM.

System: Moraxella catarrhalis
Test: Antibacterial activity against wild type Moraxella catarrhalis ATCC 43617 assessed as growth inhibition after 18 to 24 hrs by CLSI broth microdilution method
Format: functional
Settings: not given
In the case of `CCNC(=O)Nc1ccc(-c2nc3cccc(C(=O)O)c3s2)cn1`, the MIC is reported as 8 µg/mL (≈ 23.4 µM). In the case of `CCNC(=O)Nc1ccc(-c2cccc(C(=O)O)c2)cn1`, the MIC is reported as 42 µg/mL (≈ 147 µM). In the case of `CCNC(=O)Nc1ccc(-c2nc3cccc(C(N)=O)c3s2)cn1`, the MIC is reported as greater than 64 µg/mL.

System: Staphylococcus aureus
Test: Antibacterial activity against methicillin-sensitive wild type Staphylococcus aureus assessed as growth inhibition after 18 to 24 hrs by CLSI broth microdilution method
Format: functional
Settings: not given
Work on `CCNC(=O)Nc1ccc(-c2nc3cccc(C(=O)O)c3s2)cn1` yielded an MIC greater than 64 µg/mL. In the case of `CCNC(=O)Nc1ccc(-c2cccc(C(=O)O)c2)cn1`, the MIC is reported as greater than 64 µg/mL. Work on `CCNC(=O)Nc1ccc(-c2nc3cccc(C(N)=O)c3s2)cn1` yielded an MIC greater than 64 µg/mL. Compound `CCNC(=O)Nc1cc(-c2nc(C(F)(F)F)cs2)c(-c2cncc(-c3c(C)noc3C)c2)cn1` has an MIC greater than 9 µg/mL.

System: not listed separately
Test: Inhibition of ATPase activity in Escherichia coli ParC/ParE by ammonium molybdate/malachite green-based absorbance assay
Settings: not given
`CCNC(=O)Nc1ccc(-c2nc3cccc(C(=O)O)c3s2)cn1` gave an IC50 of 2100 nM. Work on `CCNC(=O)Nc1ccc(-c2cccc(C(=O)O)c2)cn1` yielded an IC50 of 69000 nM. Work on `CCNC(=O)Nc1ccc(-c2nc3cccc(C(N)=O)c3s2)cn1` yielded an IC50 of 12000 nM. `CCNC(=O)Nc1cc(-c2nc(C(F)(F)F)cs2)c(-c2cncc(-c3c(C)noc3C)c2)cn1` showed an IC50 of 4800 nM.

System: not listed separately
Test: Octanol-phosphate buffer partition coefficient, log D of the compound at pH 7.4 after 1 hr by shake flask method
Format: physicochemical
Settings: not given
`CCNC(=O)Nc1cc(-c2nc(C(F)(F)F)cs2)c(-c2cncc(-c3c(C)noc3C)c2)cn1` showed a logD at 1 h of 3.5.

System: not listed separately
Test: Antibacterial activity against wild type Haemophilus influenzae Rd KW20 ATCC 51907 assessed as growth inhibition after 18 to 24 hrs by CLSI broth microdilution method
Format: functional
Settings: not given
Work on `CCNC(=O)Nc1ccc(-c2nc3cccc(C(=O)O)c3s2)cn1` yielded an MIC of 16 µg/mL (≈ 46.7 µM). `CCNC(=O)Nc1ccc(-c2cccc(C(=O)O)c2)cn1` showed an MIC of 59 µg/mL (≈ 207 µM). `CCNC(=O)Nc1ccc(-c2nc3cccc(C(N)=O)c3s2)cn1` gave an MIC greater than 64 µg/mL. Compound `CCNC(=O)Nc1cc(-c2nc(C(F)(F)F)cs2)c(-c2cncc(-c3c(C)noc3C)c2)cn1` has an MIC greater than 9 µg/mL.

System: Escherichia coli
Test: Antibacterial activity against wild type Escherichia coli W3110 assessed as growth inhibition after 18 to 24 hrs by CLSI broth microdilution method
Format: functional
Settings: not given
`CCNC(=O)Nc1ccc(-c2nc3cccc(C(=O)O)c3s2)cn1` gave an MIC greater than 64 µg/mL. `CCNC(=O)Nc1ccc(-c2cccc(C(=O)O)c2)cn1` showed an MIC greater than 64 µg/mL. Compound `CCNC(=O)Nc1ccc(-c2nc3cccc(C(N)=O)c3s2)cn1` has an MIC greater than 64 µg/mL. In the case of `CCNC(=O)Nc1cc(-c2nc(C(F)(F)F)cs2)c(-c2cncc(-c3c(C)noc3C)c2)cn1`, the MIC is reported as greater than 9 µg/mL.

Target: DNA gyrase subunit B (Staphylococcus aureus, UniProt P0A0K8)
Sequence (P0A0K8 whole entry): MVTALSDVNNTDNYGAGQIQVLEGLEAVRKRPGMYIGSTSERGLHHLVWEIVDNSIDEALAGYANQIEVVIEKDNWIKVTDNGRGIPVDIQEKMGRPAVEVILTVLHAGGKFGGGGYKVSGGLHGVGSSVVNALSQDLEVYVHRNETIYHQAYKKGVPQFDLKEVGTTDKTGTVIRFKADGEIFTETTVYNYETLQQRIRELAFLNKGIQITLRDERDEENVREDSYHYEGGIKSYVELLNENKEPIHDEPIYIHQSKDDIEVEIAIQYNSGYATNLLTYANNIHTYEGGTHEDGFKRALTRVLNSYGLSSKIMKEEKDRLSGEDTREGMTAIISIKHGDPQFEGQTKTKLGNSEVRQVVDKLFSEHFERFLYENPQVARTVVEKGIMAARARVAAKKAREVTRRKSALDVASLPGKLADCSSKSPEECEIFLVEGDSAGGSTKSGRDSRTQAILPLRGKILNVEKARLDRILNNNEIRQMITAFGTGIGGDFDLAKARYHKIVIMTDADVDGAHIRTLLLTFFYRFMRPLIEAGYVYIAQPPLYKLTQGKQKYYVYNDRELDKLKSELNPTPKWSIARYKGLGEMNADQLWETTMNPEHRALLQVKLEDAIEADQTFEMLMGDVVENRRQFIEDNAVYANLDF
Test: Inhibition of ATPase activity in Staphylococcus aureus GyrB tetramer in presence of Escherichia coli GyrA by ammonium molybdate/malachite green-based absorbance assay
Settings: not given
With `CCNC(=O)Nc1ccc(-c2nc3cccc(C(=O)O)c3s2)cn1` the IC50 was 100 nM. Compound `CCNC(=O)Nc1ccc(-c2cccc(C(=O)O)c2)cn1` has an IC50 of 3400 nM. `CCNC(=O)Nc1ccc(-c2nc3cccc(C(N)=O)c3s2)cn1` showed an IC50 of 39 nM. Compound `CCNC(=O)Nc1cc(-c2nc(C(F)(F)F)cs2)c(-c2cncc(-c3c(C)noc3C)c2)cn1` has an IC50 of 300 nM.

System: not listed separately
Test: Inhibition of ATPase activity in Escherichia coli GyrA/GyrB by ammonium molybdate/malachite green-based absorbance assay
Settings: not given
`CCNC(=O)Nc1ccc(-c2cccc(C(=O)O)c2)cn1` gave an IC50 of 4700 nM. Compound `CCNC(=O)Nc1ccc(-c2nc3cccc(C(N)=O)c3s2)cn1` has an IC50 of 94 nM. In the case of `CCNC(=O)Nc1cc(-c2nc(C(F)(F)F)cs2)c(-c2cncc(-c3c(C)noc3C)c2)cn1`, the IC50 is reported as 68 nM.

System: not listed separately
Test: Antibacterial activity against Streptococcus pneumoniae D39 NCTC 7466 assessed as growth inhibition after 18 to 24 hrs by CLSI broth microdilution method
Format: functional
Settings: not given
In the case of `CCNC(=O)Nc1ccc(-c2nc3cccc(C(=O)O)c3s2)cn1`, the MIC is reported as 2 µg/mL (≈ 5.84 µM). Work on `CCNC(=O)Nc1ccc(-c2cccc(C(=O)O)c2)cn1` yielded an MIC of 21 µg/mL (≈ 73.6 µM). Work on `CCNC(=O)Nc1ccc(-c2nc3cccc(C(N)=O)c3s2)cn1` yielded an MIC of 1 µg/mL (≈ 2.93 µM). Compound `CCNC(=O)Nc1cc(-c2nc(C(F)(F)F)cs2)c(-c2cncc(-c3c(C)noc3C)c2)cn1` has an MIC of 4.6 µg/mL (≈ 9.42 µM).
